From patent US20240024488A1, “COMPOUNDS AND USES THEREOF” (Foghorn Therapeutics Inc., priority 2020, published 2024)

Legend:
[1] = target: T1, HiBit-BRG1 fusion protein (Homo sapiens, UniProt P51532); assay: HiBiT-BRG1 cell-based degradation assay (Nano-Glo HiBiT Lytic Detection, 24 h); settings: HeLa cell line expressing HiBit-BRG1 and LgBit; for Dmax: read-out: BRG1 HiBit Degradation Maximum (%); for DC50: read-out: BRMG1 HiBit Degradation IC50
T1 construct: expressed in transfected cells
Method in brief: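 Seed 5000 HeLa HiBit-BRG1/LgBit cells per well; treat 24 h; equilibrate 15 min at room temperature; add Nano-Glo HiBiT lytic reagent, shake 10 min, read luminescence. Percent degradation is scaled between DMSO and 2 μM reference degrader wells.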

HiBit-BRM fusion protein = target: T2, HiBit-BRM fusion protein (Homo sapiens, UniProt P51531); assay: HiBiT-BRM cell-based degradation assay (Nano-Glo HiBiT Lytic Detection, 24 h); settings: HeLa cell line expressing HiBiT-BRM; for DC50: read-out: BRM HiBit Degradation IC50
T2 construct: expressed in transfected cells
Method in brief: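 Luminescence from reconstituted NanoBiT luciferase in lysed HeLa HiBiT-BRM cells served as the measure of remaining BRM after 24 h treatment. Compounds were tested from 30 μM final downward in 3-fold steps. DMSO and 2 μM of a standard BRM/BRG1 degrader defined the scale limits.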

T2 sequence (P51531 whole entry, the tested form may be a part): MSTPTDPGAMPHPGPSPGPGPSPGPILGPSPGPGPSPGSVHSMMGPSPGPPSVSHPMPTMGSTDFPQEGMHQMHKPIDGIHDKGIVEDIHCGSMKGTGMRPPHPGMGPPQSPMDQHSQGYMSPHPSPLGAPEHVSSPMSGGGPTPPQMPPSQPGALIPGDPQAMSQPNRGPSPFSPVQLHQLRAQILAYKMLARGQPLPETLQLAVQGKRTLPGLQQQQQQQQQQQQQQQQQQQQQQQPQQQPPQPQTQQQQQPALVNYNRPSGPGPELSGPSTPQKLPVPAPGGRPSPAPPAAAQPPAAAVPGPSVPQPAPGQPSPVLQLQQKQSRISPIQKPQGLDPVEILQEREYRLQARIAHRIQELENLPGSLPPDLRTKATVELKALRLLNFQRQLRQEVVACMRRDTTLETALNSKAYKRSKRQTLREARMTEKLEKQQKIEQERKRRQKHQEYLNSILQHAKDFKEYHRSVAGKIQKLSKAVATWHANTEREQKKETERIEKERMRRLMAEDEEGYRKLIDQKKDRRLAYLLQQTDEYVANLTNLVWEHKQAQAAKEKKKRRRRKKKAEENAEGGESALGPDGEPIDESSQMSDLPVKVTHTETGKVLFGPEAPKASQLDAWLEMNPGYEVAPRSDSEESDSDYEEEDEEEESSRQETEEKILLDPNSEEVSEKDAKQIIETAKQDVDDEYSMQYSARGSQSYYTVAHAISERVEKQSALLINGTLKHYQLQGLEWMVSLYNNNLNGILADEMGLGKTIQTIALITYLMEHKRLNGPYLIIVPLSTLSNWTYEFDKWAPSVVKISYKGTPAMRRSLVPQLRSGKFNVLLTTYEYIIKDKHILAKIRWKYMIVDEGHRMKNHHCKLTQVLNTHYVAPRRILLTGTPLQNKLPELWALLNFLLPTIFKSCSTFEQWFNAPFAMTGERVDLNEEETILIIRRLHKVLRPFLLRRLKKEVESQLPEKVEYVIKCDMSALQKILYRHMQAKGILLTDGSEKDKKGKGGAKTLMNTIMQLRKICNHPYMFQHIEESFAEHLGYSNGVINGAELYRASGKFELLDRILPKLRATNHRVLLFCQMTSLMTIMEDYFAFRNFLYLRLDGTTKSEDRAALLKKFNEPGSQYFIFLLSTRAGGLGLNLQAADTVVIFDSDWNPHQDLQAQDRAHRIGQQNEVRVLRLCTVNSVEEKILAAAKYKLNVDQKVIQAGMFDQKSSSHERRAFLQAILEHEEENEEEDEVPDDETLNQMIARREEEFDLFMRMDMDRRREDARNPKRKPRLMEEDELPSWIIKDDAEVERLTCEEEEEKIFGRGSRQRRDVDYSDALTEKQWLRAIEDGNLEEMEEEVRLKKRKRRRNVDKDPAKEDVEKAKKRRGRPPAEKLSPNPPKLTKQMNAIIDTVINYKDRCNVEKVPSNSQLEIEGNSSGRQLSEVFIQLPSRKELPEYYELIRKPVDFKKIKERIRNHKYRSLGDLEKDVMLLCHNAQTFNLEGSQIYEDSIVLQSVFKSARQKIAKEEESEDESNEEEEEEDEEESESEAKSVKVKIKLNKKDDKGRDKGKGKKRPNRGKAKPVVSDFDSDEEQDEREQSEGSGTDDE
T1 sequence (P51532 whole entry, the tested form may be a part): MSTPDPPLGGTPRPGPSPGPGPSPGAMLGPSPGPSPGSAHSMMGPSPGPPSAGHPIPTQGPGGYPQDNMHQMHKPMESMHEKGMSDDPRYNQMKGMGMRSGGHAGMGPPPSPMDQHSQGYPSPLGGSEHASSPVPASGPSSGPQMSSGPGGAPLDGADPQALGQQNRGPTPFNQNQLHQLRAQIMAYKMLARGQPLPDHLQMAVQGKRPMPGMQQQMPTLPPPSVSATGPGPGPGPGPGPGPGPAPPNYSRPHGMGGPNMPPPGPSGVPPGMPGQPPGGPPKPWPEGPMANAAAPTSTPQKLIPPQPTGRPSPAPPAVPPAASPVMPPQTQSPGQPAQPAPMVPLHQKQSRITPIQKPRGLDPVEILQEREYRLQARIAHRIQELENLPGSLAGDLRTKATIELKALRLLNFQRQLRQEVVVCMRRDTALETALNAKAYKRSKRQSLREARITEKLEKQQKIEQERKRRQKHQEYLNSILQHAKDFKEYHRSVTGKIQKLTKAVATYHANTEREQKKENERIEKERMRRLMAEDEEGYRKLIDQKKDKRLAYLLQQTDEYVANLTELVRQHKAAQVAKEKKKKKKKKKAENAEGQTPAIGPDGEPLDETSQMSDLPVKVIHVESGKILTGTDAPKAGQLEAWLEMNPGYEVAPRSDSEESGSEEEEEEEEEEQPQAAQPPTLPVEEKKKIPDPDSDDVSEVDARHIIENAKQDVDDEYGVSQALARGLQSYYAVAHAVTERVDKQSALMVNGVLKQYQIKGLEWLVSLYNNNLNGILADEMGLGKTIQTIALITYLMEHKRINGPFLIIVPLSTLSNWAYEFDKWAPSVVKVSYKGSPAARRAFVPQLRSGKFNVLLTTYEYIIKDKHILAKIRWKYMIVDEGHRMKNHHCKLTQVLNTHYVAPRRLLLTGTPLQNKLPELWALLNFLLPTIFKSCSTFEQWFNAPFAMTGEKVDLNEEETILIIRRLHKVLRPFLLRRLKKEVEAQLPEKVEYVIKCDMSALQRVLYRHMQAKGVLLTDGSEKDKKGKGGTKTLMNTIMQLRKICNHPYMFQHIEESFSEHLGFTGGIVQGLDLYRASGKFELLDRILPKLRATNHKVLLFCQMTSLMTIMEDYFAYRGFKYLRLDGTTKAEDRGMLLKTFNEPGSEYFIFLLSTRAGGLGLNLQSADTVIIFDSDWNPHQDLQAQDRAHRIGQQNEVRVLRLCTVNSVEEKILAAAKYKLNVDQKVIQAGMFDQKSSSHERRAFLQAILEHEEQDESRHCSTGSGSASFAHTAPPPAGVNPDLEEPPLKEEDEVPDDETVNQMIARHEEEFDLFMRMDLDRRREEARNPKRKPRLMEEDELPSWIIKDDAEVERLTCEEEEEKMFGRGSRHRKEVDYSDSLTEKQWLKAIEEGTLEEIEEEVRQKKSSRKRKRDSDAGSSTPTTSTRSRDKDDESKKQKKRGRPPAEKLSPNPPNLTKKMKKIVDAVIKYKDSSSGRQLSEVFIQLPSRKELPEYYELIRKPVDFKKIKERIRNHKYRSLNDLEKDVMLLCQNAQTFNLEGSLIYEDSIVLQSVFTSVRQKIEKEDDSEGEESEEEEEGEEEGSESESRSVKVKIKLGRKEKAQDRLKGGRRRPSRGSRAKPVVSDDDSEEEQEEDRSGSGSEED

SMILES	Dmax [1] [%]	DC50 [1] [nM]	BRM HiBit Degradation Maximum (%) (HiBit-BRM fusion protein)	DC50 (HiBit-BRM fusion protein) [nM]
Cc1ncsc1-c1ccc([C@H](C)NC(=O)[C@@H]2C[C@@H](O)CN2C(=O)[C@@H](c2cc(N3CCC(CN4CCc5[nH]c6nnc(-c7ccccc7O)cc6c5[C@H]4C)CC3)no2)C(C)C)cc1 (racemic) [Compound 81, (2S,4R)-4-hydroxy-1-[(2R)-2-[3-(4-{[(3R)-12-(2-hydroxyphenyl)-3-methyl-4,8,10,11-tetraazatricyclo[7.4.0.0^{2,7}]trideca-1(13),2(7),9,11-tetraen-4-yl]methyl}piperidin-1-yl)-1,2-oxazol-5-yl]-3-methylbutanoyl]-N-[(1S)-1-[4-(4-methyl-1,3-thiazol-5-yl)phenyl]ethyl]pyrrolidine-2-carboxamide]	> 75	> 100	A (“A” indicates maximum degradation ≥ 75%)	> 10
Cc1ncsc1-c1ccc([C@H](C)NC(=O)[C@@H]2C[C@@H](O)CN2C(=O)[C@@H](c2cc(N3CCC(C(=O)N4CCc5[nH]c6nnc(-c7ccccc7O)cc6c5[C@H]4C)CC3)no2)C(C)C)cc1 (racemic) [Compound 82, (2S,4R)-4-hydroxy-1-((R)-2-(3-(4-((R)-3-(2-hydroxyphenyl)-5-methyl-6,7,8,9-tetrahydro-5H-pyrido[3′,4′:4,5]pyrrolo[2,3-c]pyridazine-6-carbonyl)piperidin-1-yl)isoxazol-5-yl)-3-methylbutanoyl)-N-((S)-1-(4-(4-methylthiazol-5-yl)phenyl)ethyl)pyrrolidine-2-carboxamide]	> 75	> 100	A (“A” indicates maximum degradation ≥ 75%)	< 10
Cc1ncsc1-c1ccc([C@H](C)NC(=O)[C@@H]2C[C@@H](O)CN2C(=O)[C@@H](c2cc(N3CCC(CN4CCc5[nH]c6nnc(-c7ccccc7O)cc6c5[C@@H]4C)CC3)no2)C(C)C)cc1 (racemic) [Compound 83, (2S,4R)-4-hydroxy-1-[(2R)-2-[3-(4-{[(3S)-12-(2-hydroxyphenyl)-3-methyl-4,8,10,11-tetraazatricyclo[7.4.0.0^{2,7}]trideca-1(13),2(7),9,11-tetraen-4-yl]methyl}piperidin-1-yl)-1,2-oxazol-5-yl]-3-methylbutanoyl]-N-[(1S)-1-[4-(4-methyl-1,3-thiazol-5-yl)phenyl]ethyl]pyrrolidine-2-carboxamide]	> 75	> 10	A (“A” indicates maximum degradation ≥ 75%)	> 10
Cc1ncsc1-c1ccc([C@H](C)NC(=O)[C@@H]2C[C@@H](O)CN2C(=O)[C@@H](c2cc(OCCCN3CC4(Cc5cc(-c6ccccc6O)nnc5N4)C3)no2)C(C)C)cc1 (racemic) [Compound 84, (2S,4R)-4-hydroxy-1-((R)-2-(3-(3-(3′-(2-hydroxyphenyl)-5′,7′-dihydrospiro[azetidine-3,6′-pyrrolo[2,3-c]pyridazin]-1-yl)propoxy)isoxazol-5-yl)-3-methylbutanoyl)-N-((S)-1-(4-(4-methylthiazol-5-yl)phenyl)ethyl)pyrrolidine-2-carboxamide]	< 50	–	C (“C” indicates maximum degradation < 50%)	–
Cc1ncsc1-c1ccc([C@H](C)NC(=O)[C@@H]2C[C@@H](O)CN2C(=O)[C@@H](c2cc(N3CCC(C(=O)N4CCc5[nH]c6nnc(-c7ccccc7O)cc6c5[C@@H]4C)CC3)no2)C(C)C)cc1 (racemic) [Compound 86, (2S,4R)-4-hydroxy-1-((R)-2-(3-(4-((S)-3-(2-hydroxyphenyl)-5-methyl-6,7,8,9-tetrahydro-5H-pyrido[3′,4′:4,5]pyrrolo[2,3-c]pyridazine-6-carbonyl)piperidin-1-yl)isoxazol-5-yl)-3-methylbutanoyl)-N-((S)-1-(4-(4-methylthiazol-5-yl)phenyl)ethyl)pyrrolidine-2-carboxamide]	< 50	–	A (“A” indicates maximum degradation ≥ 75%)	> 100
Cc1ncsc1-c1ccc([C@H](C)NC(=O)[C@@H]2C[C@@H](O)CN2C(=O)[C@@H](c2cc(N(C)CCN3CC4(Cc5cc(-c6ccccc6O)nnc5N4)C3)no2)C(C)C)cc1 (racemic) [Compound 87, (2S,4R)-4-hydroxy-1-((R)-2-(3-((2-(3′-(2-hydroxyphenyl)-5′,7′-dihydrospiro[azetidine-3,6′-pyrrolo[2,3-c]pyridazin]-1-yl)ethyl)(methyl)amino)isoxazol-5-yl)-3-methylbutanoyl)-N-((S)-1-(4-(4-methylthiazol-5-yl)phenyl)ethyl)pyrrolidine-2-carboxamide]	< 50	–	C (“C” indicates maximum degradation < 50%)	–
Cc1ncsc1-c1ccc(CNC(=O)[C@@H]2C[C@@H](O)CN2C(=O)[C@@H](NC(=O)[C@H]2CC[C@H](c3cnc(N4CCC(c5cc6cc(-c7ccccc7O)nnc6[nH]5)CC4)nc3)CC2)C(C)(C)C)cc1 (racemic) [Compound 93, (2S,4R)-4-hydroxy-1-((S)-2-((1r,4S)-4-(2-(4-(3-(2-hydroxyphenyl)-7H-pyrrolo[2,3-c]pyridazin-6-yl)piperidin-1-yl)pyrimidin-5-yl)cyclohexane-1-carboxamido)-3,3-dimethylbutanoyl)-N-(4-(4-methylthiazol-5-yl)benzyl)pyrrolidine-2-carboxamide]	> 75	> 100	A (“A” indicates maximum degradation ≥ 75%)	> 10
Cc1ncsc1-c1ccc(CNC(=O)[C@@H]2C[C@@H](O)CN2C(=O)[C@@H](NC(=O)[C@H]2CC[C@@H](c3cnc(N4CCC(c5cc6cc(-c7ccccc7O)nnc6[nH]5)CC4)nc3)CC2)C(C)(C)C)cc1 (racemic) [Compound 94, (2S,4R)-4-hydroxy-1-((S)-2-((1s,4R)-4-(2-(4-(3-(2-hydroxyphenyl)-7H-pyrrolo[2,3-c]pyridazin-6-yl)piperidin-1-yl)pyrimidin-5-yl)cyclohexane-1-carboxamido)-3,3-dimethylbutanoyl)-N-(4-(4-methylthiazol-5-yl)benzyl)pyrrolidine-2-carboxamide]	< 50	–	A (“A” indicates maximum degradation ≥ 75%)	> 10
Cc1ncsc1-c1ccc([C@H](C)NC(=O)[C@@H]2C[C@@H](O)CN2C(=O)[C@@H](c2cc(OCC(=O)N3CC4(Cc5cc(-c6ccccc6O)nnc5N4)C3)no2)C(C)C)cc1 (racemic) [Compound 95, (2S,4R)-4-hydroxy-1-((R)-2-(3-(2-(3′-(2-hydroxyphenyl)-5′,7′-dihydrospiro[azetidine-3,6′-pyrrolo[2,3-c]pyridazin]-1-yl)-2-oxoethoxy)isoxazol-5-yl)-3-methylbutanoyl)-N-((S)-1-(4-(4-methylthiazol-5-yl)phenyl)ethyl)pyrrolidine-2-carboxamide]	< 50	–	B (“B” indicates maximum degradation ≥ 50%)	> 1000
Cc1ncsc1-c1ccc([C@H](C)NC(=O)[C@@H]2C[C@@H](O)CN2C(=O)[C@@H](c2cc(N3CCC(CN4CC5(Cc6cc(-c7ccccc7O)nnc6N5)C4)CC3)no2)C(C)C)cc1 (racemic) [Compound 96, (2S,4R)-4-hydroxy-1-((R)-2-(3-(4-((3′-(2-hydroxyphenyl)-5′,7′-dihydrospiro[azetidine-3,6′-pyrrolo[2,3-c]pyridazin]-1-yl)methyl)piperidin-1-yl)isoxazol-5-yl)-3-methylbutanoyl)-N-((S)-1-(4-(4-methylthiazol-5-yl)phenyl)ethyl)pyrrolidine-2-carboxamide]	> 50	> 100	A (“A” indicates maximum degradation ≥ 75%)	> 10
Cc1ncsc1-c1ccc([C@H](C)NC(=O)[C@@H]2C[C@@H](O)CN2C(=O)[C@@H](c2cc(N3CCC(C(=O)N4CC5(Cc6cc(-c7ccccc7O)nnc6N5)C4)CC3)no2)C(C)C)cc1 (racemic) [Compound 97, (2S,4R)-4-hydroxy-1-((R)-2-(3-(4-(3′-(2-hydroxyphenyl)-5′,7′-dihydrospiro[azetidine-3,6′-pyrrolo[2,3-c]pyridazine]-1-carbonyl)piperidin-1-yl)isoxazol-5-yl)-3-methylbutanoyl)-N-((S)-1-(4-(4-methylthiazol-5-yl)phenyl)ethyl)pyrrolidine-2-carboxamide]	< 50	–	A (“A” indicates maximum degradation ≥ 75%)	> 100
Cc1ncsc1-c1ccc([C@H](C)NC(=O)[C@@H]2C[C@@H](O)CN2C(=O)[C@@H](c2cc(N3CCC(N4CC5(Cc6cc(-c7ccccc7O)nnc6N5)C4)CC3)no2)C(C)C)cc1 (racemic) [Compound 98, (2S,4R)-4-hydroxy-1-((R)-2-(3-(4-(3′-(2-hydroxyphenyl)-5′,7′-dihydrospiro[azetidine-3,6′-pyrrolo[2,3-c]pyridazin]-1-yl)piperidin-1-yl)isoxazol-5-yl)-3-methylbutanoyl)-N-((S)-1-(4-(4-methylthiazol-5-yl)phenyl)ethyl)pyrrolidine-2-carboxamide]	< 50	–	A (“A” indicates maximum degradation ≥ 75%)	> 10
